Data from patent publication US20260091020A1, “TREATMENT OF ACUTE CANNABINOID OVERDOSE” (Anebulo Pharmaceuticals, Inc., priority 2022, published 2026).

Legend:
[1] = system: central nervous system effects of THC; assay: THC challenge PD, 10.5 mg THC + 30 mg Compound 1 (Example 3); assay type: in vivo, human; conditions: THC (10.5 mg) + Compound 1 (30 mg)
Protocol: Following the general methods of Example 1, the study design was adjusted such that groups received either (a) THC (10.5 mg)+placebo or (b) THC (10.5 mg)+Compound 1 (30 mg). Pharmacodynamic properties were then measured for Compound 1.

[2] = system: central nervous system effects of THC; assay: THC challenge PD, 21-30 mg THC with 10 or 30 mg Compound 1, simultaneous or 1 hr delay (Examples 4 and 9); assay type: in vivo, human
Protocol: FIG. 14 depicts a randomized, double-blind, placebo controlled study. Left to right. (a) 14 Adult volunteers ages 18-45 are selected; (b) A single oral dose and 24-hour assessment is conducted for groups (1) 21 mg THC+placebo; and (2) 21 mg THC+30 mg ANEB-001 (c) 7 to 14 day follow up is conducted. Primary endpoints include inhibition of central nervous system effects of THC using (a) visual analog scale “feeling high”; (b) visual analog scale “alertness”; (c) body sway; (d) heart rate. Secondary endpoints include additional efficacy metrics, safety/tolerability, PK, and PK/PD correlations.
FIG. 15 depicts a randomized, double-blind, placebo controlled study. Left to right: (a) 11 Adult volunteers ages 18-45 are selected; (b) A single oral dose and 24-hour assessment is conducted for groups (1) 21 mg THC+placebo; and (2) 21 mg THC+10 mg ANEB-001 (c) 7 to 14 day follow up is conducted. Primary endpoints include inhibition of central nervous system effects of THC using (a) visual analog scale “feeling high”; (b) visual analog scale “alertness”; (c) body sway; (d) heart rate. Secondary endpoints include additional efficacy metrics, safety/tolerability, PK, and PK/PD correlations.
Following the general methods of Example 2, the study design was adjusted such that groups received either (a) THC (21 mg)+placebo or (b) THC (21 mg)+Compound 1 (30 mg) (FIG. 14) or either (a) THC (21 mg)+placebo or (b) THC (21 mg)+Compound 1 (10 mg) (FIG. 15). […] Summary of pharmacokinetics of THC with 30 mg ANEB-001 challenge (FIG. 18A and FIG. 18B), AUC after 5 hours (FIG. 18C), AUC last (FIG. 18D) and Cmax (FIG. 18E).
Following the general methods of Examples 1-3, the study design was adjusted such that Compound 1 was administered 1 hour after administration of THC. Groups received either (a) THC (21 mg)+Compound 1 (10 mg); (b) THC […]+Compound 1 (10 mg); (c) THC (30 mg)+Compound 1 (10 mg); or (d) THC (30 mg)+Compound 1 (10 mg). […] Endpoints were then evaluated as generally described in Example 1, and PK properties were measured as shown for the general methods of Example 2.

[3] = 30 mg THC, 10 mg ANEB-001, 1 hr Delay, p = 0.0007
[4] = 30 mg THC, 10 mg ANEB-001, 1 hr Delay, p = <0.0001
[5] = 21-30 mg THC, 10 mg ANEB-001, 1 hr Delay (pooled), p = <0.0001

SMILES: CC(C)(C)NC(=O)N1CC(O[C@H](c2ccc(Cl)cc2)c2ccccc2C(F)(F)F)C1 [Compound 1, (R)—N-(tert-butyl)-3-((4-chlorophenyl)(2-(trifluoromethyl)phenyl)methoxy)azetidine-1-carboxamide]
- Body sway, VAS alertness and VAS feeling high vs. placebo [1]: improvements in metrics such as body sway, VAS alertness, and VAS feeling high
- Body Sway, Alertness and Feeling High vs. placebo ([2]; 21 mg THC + 30 mg ANEB-001): improvements in Body Sway (FIG. 16A), Alertness (FIG. 16B) and Feeling High (FIG. 16C)
- VAS Feeling High log(mm) ([2]; 21 mg THC, 10 mg ANEB-001, 1 hr Delay, p = 0.0380): −0.5545 log(mm)
- Body Sway (mm) ([2]; 21 mg THC, 10 mg ANEB-001, 1 hr Delay, p = 0.0406): −3%
- VAS External Perception log(mm) ([2]; 21 mg THC, 10 mg ANEB-001, 1 hr Delay, p = 0.0530): Modified
- Heart Rate (supine) (bpm) ([2]; 21 mg THC, 10 mg ANEB-001, 1 hr Delay, p = 0.0589): 10.3 bpm
- VAS Alertness (mm) ([2]; 21 mg THC, 10 mg ANEB-001, 1 hr Delay, p = 0.4834): 4.4 mm
- Responder Rate (VAS Feeling High) ([2]; 21 mg THC, 10 mg ANEB-001, 1 hr Delay, p = <0.0001): Reversed
- VAS Feeling High log(mm) ([2]; 21 mg THC, 10 mg ANEB-001, Simultaneous, p = 0.0001): −0.7072 log(mm)
- Responder Rate (VAS Feeling High) ([2]; 21 mg THC, 10 mg ANEB-001, Simultaneous, p = 0.0002): Reversed
- VAS External Perception log(mm) ([2]; 21 mg THC, 10 mg ANEB-001, Simultaneous, p = 0.0037): Reversed
- VAS Alertness (mm) ([2]; 21 mg THC, 10 mg ANEB-001, Simultaneous, p = 0.0047): 9.2 mm
- Body Sway (mm) ([2]; 21 mg THC, 10 mg ANEB-001, Simultaneous, p = 0.0069): −29.3%
- VAS Internal Perception log(mm) ([2]; 21 mg THC, 10 mg ANEB-001, Simultaneous, p = 0.0120): Reversed
- Heart Rate (supine) (bpm) ([2]; 21 mg THC, 10 mg ANEB-001, Simultaneous, p = 0.7264): −1.1 bpm
- VAS External Perception log(mm) ([2]; 21 mg THC, 30 mg ANEB-001, Simultaneous, p = 0.0010): Reversed
- VAS Alertness (mm) ([2]; 21 mg THC, 30 mg ANEB-001, Simultaneous, p = 0.0013): 10.8 mm
- VAS Internal Perception log(mm) ([2]; 21 mg THC, 30 mg ANEB-001, Simultaneous, p = 0.0016): Reversed
- Responder Rate (VAS Feeling High) ([2]; 21 mg THC, 30 mg ANEB-001, Simultaneous, p = 0.0019): Reversed
- Body Sway (mm) ([2]; 21 mg THC, 30 mg ANEB-001, Simultaneous, p = 0.0023): −30.6%
- Heart Rate (supine) (bpm) ([2]; 21 mg THC, 30 mg ANEB-001, Simultaneous, p = 0.4730): −2.2 bpm
- VAS Feeling High log(mm) ([2]; 21 mg THC, 30 mg ANEB-001, Simultaneous, p = <0.0001): −0.7856 log(mm)
- VAS External Perception log(mm) ([2]; 21 mg THC, 10-30 mg ANEB-001, Simultaneous (pooled), p = 0.0004): Reversed
- Responder Rate (VAS Feeling High) ([2]; 21 mg THC, 10-30 mg ANEB-001, Simultaneous (pooled), p = 0.0005): Reversed
- VAS Alertness (mm) ([2]; 21 mg THC, 10-30 mg ANEB-001, Simultaneous (pooled), p = 0.0007): 15.6 mm
- VAS Internal Perception log(mm) ([2]; 21 mg THC, 10-30 mg ANEB-001, Simultaneous (pooled), p = 0.0012): Reversed
- Body Sway (mm) ([2]; 21 mg THC, 10-30 mg ANEB-001, Simultaneous (pooled), p = 0.0013): −30.0%
- Heart Rate (supine) (bpm) ([2]; 21 mg THC, 10-30 mg ANEB-001, Simultaneous (pooled), p = 0.8247): 0.6 bpm
- VAS Feeling High log(mm) ([2]; 21 mg THC, 10-30 mg ANEB-001, Simultaneous (pooled), p = <0.0001): −0.7364 log(mm)
- THC-induced body sway ([2]; 21 mg or 30 mg THC, coadministration or Compound 1 after THC): significant reduction in body sway
- VAS bad drug effect ([2]; 30 mg THC, 10 mg ANEB-001, 1 hr Delay, p = 0.0003): Reversed
- VAS External Perception log(mm) [2, 3]: Reversed
- VAS Internal Perception log(mm) [2, 3]: Reversed
- VAS Alertness (mm) ([2]; 30 mg THC, 10 mg ANEB-001, 1 hr Delay, p = 0.0042): 10.8 mm
- VAS good drug effect ([2]; 30 mg THC, 10 mg ANEB-001, 1 hr Delay, p = 0.0112): Reversed
- Body Sway (mm) ([2]; 30 mg THC, 10 mg ANEB-001, 1 hr Delay, p = 0.0196): −34.8%
- Heart Rate (supine) (bpm) ([2]; 30 mg THC, 10 mg ANEB-001, 1 hr Delay, p = 0.1119): 6.7 bpm
- Responder Rate (VAS Feeling High) [2, 4]: Reversed
- VAS Feel drug effect [2, 4]: Reversed
- VAS Feeling High log(mm) [2, 4]: −0.8581 log(mm)
- Responder Rate (VAS Feeling High) ([2]; 21-30 mg THC, 10 mg ANEB-001, 1 hr Delay (pooled), p = 0.0002): Reversed
- VAS Feel drug effect ([2]; 21-30 mg THC, 10 mg ANEB-001, 1 hr Delay (pooled), p = 0.0003): Reversed
- Body Sway (mm) ([2]; 21-30 mg THC, 10 mg ANEB-001, 1 hr Delay (pooled), p = 0.0014): −32.4%
- VAS good drug effect ([2]; 21-30 mg THC, 10 mg ANEB-001, 1 hr Delay (pooled), p = 0.0021): Reversed
- VAS Alertness (mm) ([2]; 21-30 mg THC, 10 mg ANEB-001, 1 hr Delay (pooled), p = 0.0024): 11.3 mm
- VAS Internal Perception log(mm) ([2]; 21-30 mg THC, 10 mg ANEB-001, 1 hr Delay (pooled), p = 0.0040): Reversed
- Heart Rate (supine) (bpm) ([2]; 21-30 mg THC, 10 mg ANEB-001, 1 hr Delay (pooled), p = 0.0125): −8.1 bpm
- VAS bad drug effect ([2]; 21-30 mg THC, 10 mg ANEB-001, 1 hr Delay (pooled), p = 0.0274): Reversed
- VAS External Perception log(mm) [2, 5]: Reversed
- VAS Feeling High log(mm) [2, 5]: −0.7028 log(mm)
- VAS drug effects (feeling any drug effect) ([2]; Compound 1 one hour after THC, vs THC alone): highly significant reduction in feeling any drug effect
- Proportion of responders (reduction in feeling high) ([2]; THC 21 or 30 mg, 10 mg or 30 mg Compound 1, vs THC alone): highly significant increase in the proportion of responders
- VAS alertness ([2]; coadministration or Compound 1 after THC, vs THC alone): significant reduction in VAS alertness
- Recovery time (feeling high time course) ([2]; coadministration or Compound 1 one hour after THC): reduced recovery time by several hours
- VAS feeling high ([2]; coadministration or Compound 1 one hour after THC, vs THC alone, overall p<0.0001): highly significant reduction in feeling high
- All primary outcomes, pre-specified pooled analysis ([2]; combined 21 mg or 30 mg THC, 10 mg Compound 1 one hour after THC): achieved statistical significance on all primary outcomes
- Key psychotropic effects of THC ([2]; single oral 10 mg Compound 1, 1 hour after THC challenge, THC doses as high as 30 mg): rapidly reversed key psychotropic effects of THC
